In ChEMBL document CHEMBL1155087, “Discovery of novel hydroxy-thiazoles as HIF-alpha prolyl hydroxylase inhibitors: SAR, synthesis, and modeling evaluation” (Bioorg Med Chem Lett, 2008):

Biological target: Egl nine homolog 1 (Homo sapiens, UniProt Q9GZT9)
Test: Inhibition of human PHD2 assessed as hydroxylation of Pro564 in human HIF-1alpha by TR-FRET assay

Sequence of Egl nine homolog 1 (Q9GZT9 whole entry): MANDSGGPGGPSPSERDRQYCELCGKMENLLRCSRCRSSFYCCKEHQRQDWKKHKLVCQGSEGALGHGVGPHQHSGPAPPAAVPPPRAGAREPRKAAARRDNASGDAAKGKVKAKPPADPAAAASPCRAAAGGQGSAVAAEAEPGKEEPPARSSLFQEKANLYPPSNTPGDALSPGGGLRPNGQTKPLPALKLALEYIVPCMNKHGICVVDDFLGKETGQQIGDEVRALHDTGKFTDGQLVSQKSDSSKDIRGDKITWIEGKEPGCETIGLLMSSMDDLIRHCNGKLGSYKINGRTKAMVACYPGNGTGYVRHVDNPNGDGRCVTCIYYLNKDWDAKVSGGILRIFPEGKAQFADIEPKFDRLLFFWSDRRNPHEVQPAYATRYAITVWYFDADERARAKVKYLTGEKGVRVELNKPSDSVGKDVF

IC50, > 40 µM:
CCOC(=O)Cc1csc(NC(=O)CS(=O)(=O)c2ccccc2)n1
CCOC(=O)Cc1cs/c(=N/C(=O)CS(=O)(=O)c2ccccc2)n1O
CC(C)(C(=O)O)c1cs/c(=N/C(=O)CS(=O)(=O)c2ccccc2)n1O
O=C(O)Cc1cs/c(=N/C(=O)CCc2ccccc2)n1O
O=C(O)Cc1csc(NC(=O)CS(=O)(=O)c2ccccc2)n1
